Results as given in publication PMC5218480 (PLoS ONE, 2017).

System: MV-4-11 cells
Assay: Gene expression microarray analysis (Affymetrix PrimeView) and GSEA
Assay type: cell-based, human
Set-up: RFU PODN (11730768_x_at) / Fold change /veh PODN (11730768_x_at) / RFU LINC00158 (11744669_a_at) / Fold change /veh LINC00158 (11744669_a_at) / RFU DUSP10 (11751237_a_at) / Fold change /veh DUSP10 (11751237_a_at) / RFU ID3 (11757404_x_at) / Fold change /veh ID3 (11757404_x_at) / RFU PLEKHG5 (11737974_s_at) / Fold change /veh PLEKHG5 (11737974_s_at) / RFU LRRC4B (11730491_at) / Fold change /veh LRRC4B (11730491_at) / RFU GIMAP4 (11747438_a_at) / Fold change /veh GIMAP4 (11747438_a_at) / RFU KRT8 (11758183_x_at) / Fold change /veh KRT8 (11758183_x_at) / RFU CNN1 (11734310_a_at) / Fold change /veh CNN1 (11734310_a_at) / RFU VPS37D (11726825_at) / Fold change /veh VPS37D (11726825_at) / RFU C10orf10 (11716522_x_at) / Fold change /veh C10orf10 (11716522_x_at) / RFU KIR2DL2 /// KIR2DL4 /// KIR2DL5A /// KIR2DL5B /// KIR2DS1 /// KIR2DS2 /// KIR2DS3 /// KIR2DS4 /// KIR3DL3 /// KIR3DL3 /// KIR3DS1 (11738374_at) / Fold change /veh KIR2DL2 /// KIR2DL4 /// KIR2DL5A /// KIR2DL5B /// KIR2DS1 /// KIR2DS2 /// KIR2DS3 /// KIR2DS4 /// KIR3DL3 /// KIR3DL3 /// KIR3DS1 (11738374_at) / RFU C1QL1 (11718748_at) / Fold change /veh C1QL1 (11718748_at) / RFU TMPRSS4 (11747572_a_at) / Fold change /veh TMPRSS4 (11747572_a_at) / RFU HAMP (11756126_x_at) / Fold change /veh HAMP (11756126_x_at) / RFU RNFT2 (11725882_a_at) / Fold change /veh RNFT2 (11725882_a_at) / RFU NR4A2 (11747474_a_at) / Fold change /veh NR4A2 (11747474_a_at) / RFU ABCC12 (11746883_a_at) / Fold change /veh ABCC12 (11746883_a_at) / RFU TMEM136 (11760407_x_at) / Fold change /veh TMEM136 (11760407_x_at) / RFU CLDN22 /// WWC2 (11732394_at) / Fold change /veh CLDN22 /// WWC2 (11732394_at) / RFU HLA-DPB1 (11760878_x_at) / Fold change /veh HLA-DPB1 (11760878_x_at) / RFU SPINT1 (11716480_a_at) / Fold change /veh SPINT1 (11716480_a_at) / RFU GAP43 (11754022_s_at) / Fold change /veh GAP43 (11754022_s_at) / RFU A4GNT (11735810_at) / Fold change /veh A4GNT (11735810_at) / RFU PRB3 (11715151_x_at) / Fold change /veh PRB3 (11715151_x_at) / RFU TUBB4B (11761932_at) / Fold change /veh TUBB4B (11761932_at) / RFU CAPN14 (11732068_a_at) / Fold change /veh CAPN14 (11732068_a_at) / RFU TMCC2 (11721928_a_at) / Fold change /veh TMCC2 (11721928_a_at) / RFU IRGQ (11745062_a_at) / Fold change /veh IRGQ (11745062_a_at) / RFU FAM174B (11720279_a_at) / Fold change /veh FAM174B (11720279_a_at) / RFU TMPRSS4 (11748680_a_at) / Fold change /veh TMPRSS4 (11748680_a_at) / RFU FAM212B (11763350_a_at) / Fold change /veh FAM212B (11763350_a_at) / RFU PLEKHG5 (11743358_a_at) / Fold change /veh PLEKHG5 (11743358_a_at) / RFU ZSCAN30 (11745921_a_at) / Fold change /veh ZSCAN30 (11745921_a_at) / RFU CMKLR1 (11741424_a_at) / Fold change /veh CMKLR1 (11741424_a_at) / RFU LOC101060620 /// MAPK8IP1 (11723275_at) / Fold change /veh LOC101060620 /// MAPK8IP1 (11723275_at) / RFU SPTSSB (11747773_x_at) / Fold change /veh SPTSSB (11747773_x_at) / RFU PRSS12 (11739890_at) / Fold change /veh PRSS12 (11739890_at) / RFU BIN1 (11741810_x_at) / Fold change /veh BIN1 (11741810_x_at) / RFU WNT11 (11732464_a_at) / Fold change /veh WNT11 (11732464_a_at) / RFU C10orf10 (11716521_a_at) / Fold change /veh C10orf10 (11716521_a_at) / RFU C5orf56 (11738089_at) / Fold change /veh C5orf56 (11738089_at) / RFU CYB561 (11721691_x_at) / Fold change /veh CYB561 (11721691_x_at) / RFU ANKRD19P (11752326_a_at) / Fold change /veh ANKRD19P (11752326_a_at) / RFU OR2T12 /// OR2T33 /// OR2T8 (11738714_s_at) / Fold change /veh OR2T12 /// OR2T33 /// OR2T8 (11738714_s_at) / RFU VCAN (11748164_a_at) / Fold change /veh VCAN (11748164_a_at) / RFU JSRP1 (11732532_at) / Fold change /veh JSRP1 (11732532_at) / RFU KRTAP10-11 (11738290_x_at) / Fold change /veh KRTAP10-11 (11738290_x_at) / RFU MYO3A (11730013_a_at) / Fold change /veh MYO3A (11730013_a_at) / RFU EBF3 (11725865_a_at) / Fold change /veh EBF3 (11725865_a_at) / RFU CAMK2N1 (11719241_x_at) / Fold change /veh CAMK2N1 (11719241_x_at) / RFU C5orf56 (11738088_a_at) / Fold change /veh C5orf56 (11738088_a_at) / RFU OLFML3 (11715873_a_at) / Fold change /veh OLFML3 (11715873_a_at) / RFU LOC100653217 /// NTM (11731650_a_at) / Fold change /veh LOC100653217 /// NTM (11731650_a_at) / RFU MAPK11 (11762145_a_at) / Fold change /veh MAPK11 (11762145_a_at) / RFU FIZ1 (11724087_x_at) / Fold change /veh FIZ1 (11724087_x_at) / RFU OASL (11726364_x_at) / Fold change /veh OASL (11726364_x_at) / RFU SOX15 (11748057_x_at) / Fold change /veh SOX15 (11748057_x_at) / RFU CD79A (11719716_a_at) / Fold change /veh CD79A (11719716_a_at) / RFU HIST1H1D (11736915_at) / Fold change /veh HIST1H1D (11736915_at) / RFU CASKIN2 (11723855_a_at) / Fold change /veh CASKIN2 (11723855_a_at) / RFU LOC730098 (11760151_x_at) / Fold change /veh LOC730098 (11760151_x_at) / RFU OR4N2 (11742367_at) / Fold change /veh OR4N2 (11742367_at) / RFU PRRT2 (11749266_a_at) / Fold change /veh PRRT2 (11749266_a_at) / RFU SNX32 (11753110_a_at) / Fold change /veh SNX32 (11753110_a_at) / RFU CDHR5 (11726645_a_at) / Fold change /veh CDHR5 (11726645_a_at) / RFU RCAN1 (11760418_a_at) / Fold change /veh RCAN1 (11760418_a_at) / RFU FAM167A (11723789_a_at) / Fold change /veh FAM167A (11723789_a_at) / RFU FAM26E (11764081_at) / Fold change /veh FAM26E (11764081_at) / RFU ISYNA1 (11749810_s_at) / Fold change /veh ISYNA1 (11749810_s_at) / RFU ACY1 (11761880_at) / Fold change /veh ACY1 (11761880_at) / RFU 11764098_at / Fold change /veh 11764098_at / RFU SAMD14 (11745864_x_at) / Fold change /veh SAMD14 (11745864_x_at) / RFU NPB (11741838_a_at) / Fold change /veh NPB (11741838_a_at) / RFU TMPRSS6 (11731388_a_at) / Fold change /veh TMPRSS6 (11731388_a_at) / RFU KRTAP10-2 (11738614_at) / Fold change /veh KRTAP10-2 (11738614_at) / RFU ARHGAP8 /// PRR5-ARHGAP8 (11727945_x_at) / Fold change /veh ARHGAP8 /// PRR5-ARHGAP8 (11727945_x_at) / RFU KRTAP5-7 /// NADSYN1 (11734609_at) / Fold change /veh KRTAP5-7 /// NADSYN1 (11734609_at) / RFU RASL12 (11751679_a_at) / Fold change /veh RASL12 (11751679_a_at) / RFU CDKN2B (11736163_a_at) / Fold change /veh CDKN2B (11736163_a_at) / RFU PRF1 (11729649_at) / Fold change /veh PRF1 (11729649_at) / RFU, ZNF638 /// ZNF638-IT1 / Fold change vs veh, ZNF638 /// ZNF638-IT1 / RFU, PANK3 / Fold change vs veh, PANK3 / RFU, SH3YL1 / Fold change vs veh, SH3YL1 / RFU, ZEB2 / Fold change vs veh, ZEB2 / RFU, NRIP1 / Fold change vs veh, NRIP1 / RFU, PTTG1IP / Fold change vs veh, PTTG1IP / RFU, CAPN2 / Fold change vs veh, CAPN2 / RFU, MED14 / Fold change vs veh, MED14 / RFU, SNORA58 / Fold change vs veh, SNORA58 / RFU, C1orf63 / Fold change vs veh, C1orf63 / RFU, LRRFIP1 / Fold change vs veh, LRRFIP1 / RFU, NDUFAF7 / Fold change vs veh, NDUFAF7 / RFU, SLC12A2 / Fold change vs veh, SLC12A2 / RFU, IBTK / Fold change vs veh, IBTK / RFU, ESF1 / Fold change vs veh, ESF1 / Fold change vs veh, TMEM50B / RFU, TAOK1 / Fold change vs veh, TAOK1 / RFU, ACBD3 / Fold change vs veh, ACBD3 / RFU, TMA16 / Fold change vs veh, TMA16 / RFU, RWDD3 / Fold change vs veh, RWDD3 / RFU, BCAT1 / Fold change vs veh, BCAT1 / RFU, EDEM3 / Fold change vs veh, EDEM3 / RFU, TMEM33 / Fold change vs veh, TMEM33 / RFU, WDR75 / Fold change vs veh, WDR75 / RFU, AHCTF1 / Fold change vs veh, AHCTF1 / RFU, TFRC / Fold change vs veh, TFRC / RFU, ZDHHC17 / Fold change vs veh, ZDHHC17 / RFU, NOM1 / Fold change vs veh, NOM1 / RFU, ARL8B / Fold change vs veh, ARL8B / RFU, ZBTB11 / Fold change vs veh, ZBTB11 / RFU, TAMM41 / Fold change vs veh, TAMM41 / RFU, KIAA1704 /// LOC100996395 / Fold change vs veh, KIAA1704 /// LOC100996395 / RFU, ING1 / Fold change vs veh, ING1 / RFU, TRMT61B / Fold change vs veh, TRMT61B / RFU, FUBP3 / Fold change vs veh, FUBP3 / RFU, TP53 / Fold change vs veh, TP53 / RFU, TNKS2 / Fold change vs veh, TNKS2 / RFU, ZFP14 / Fold change vs veh, ZFP14 / RFU, ACTR2 / Fold change vs veh, ACTR2 / RFU, PPP3R1 / Fold change vs veh, PPP3R1 / RFU, PIK3R1 / Fold change vs veh, PIK3R1 / RFU, HNRNPA1 / Fold change vs veh, HNRNPA1 / RFU, RNF170 / Fold change vs veh, RNF170 / RFU, ZNF28 / Fold change vs veh, ZNF28 / RFU, RNGTT / Fold change vs veh, RNGTT / RFU, OGT / Fold change vs veh, OGT / RFU, BRD1 / Fold change vs veh, BRD1 / RFU, MARS / Fold change vs veh, MARS / RFU, ZNF655 / Fold change vs veh, ZNF655 / RFU, FAHD1 / Fold change vs veh, FAHD1 / RFU, BDP1 / Fold change vs veh, BDP1 / RFU, LRRCC1 / Fold change vs veh, LRRCC1 / RFU, ARID1A / Fold change vs veh, ARID1A / RFU, ZNF146 / Fold change vs veh, ZNF146 / RFU, ZNF330 / Fold change vs veh, ZNF330 / RFU, GPN3 / Fold change vs veh, GPN3 / RFU, C9orf123 / Fold change vs veh, C9orf123 / RFU, N4BP2L2 / Fold change vs veh, N4BP2L2 / RFU, ARFIP1 / Fold change vs veh, ARFIP1 / RFU, FAM179B / Fold change vs veh, FAM179B / RFU, BCL10 / Fold change vs veh, BCL10 / RFU, UHRF1BP1L / Fold change vs veh, UHRF1BP1L / RFU, BET1 / Fold change vs veh, BET1 / RFU, CNOT2 / Fold change vs veh, CNOT2 / RFU, ZNF268 / Fold change vs veh, ZNF268 / Fold change vs veh, ZNF507 / RFU, DGCR2 / Fold change vs veh, DGCR2 / RFU, WDSUB1 / Fold change vs veh, WDSUB1 / Fold change vs veh, HSP90B1 /// MIR3652 / RFU, ADSS / Fold change vs veh, ADSS / RFU, GK / Fold change vs veh, GK / RFU, ZNF148 / Fold change vs veh, ZNF148 / RFU, TAF9 / Fold change vs veh, TAF9 / RFU, SLC1A5 / Fold change vs veh, SLC1A5 / RFU, SLMO2 / Fold change vs veh, SLMO2 / RFU, ABCC4 / Fold change vs veh, ABCC4 / RFU, LOC101060439 /// RAP1B / Fold change vs veh, LOC101060439 /// RAP1B / RFU, RFX7 / Fold change vs veh, RFX7 / RFU, GTPBP10 / Fold change vs veh, GTPBP10 / RFU, CNEP1R1 / Fold change vs veh, CNEP1R1 / RFU, BIVM-ERCC5 /// ERCC5 / Fold change vs veh, BIVM-ERCC5 /// ERCC5 / RFU, ILF3 / Fold change vs veh, ILF3 / RFU 11762660_at / Fold change /veh 11762660_at / RFU VCAN (11757783_s_at) / Fold change /veh VCAN (11757783_s_at) / RFU DDX43 (11728927_at) / Fold change /veh DDX43 (11728927_at) / RFU KRT8 (11758188_x_at) / Fold change /veh KRT8 (11758188_x_at) / RFU NKD1 (11759106_at) / Fold change /veh NKD1 (11759106_at) / RFU SRD5A1 (11742802_a_at) / Fold change /veh SRD5A1 (11742802_a_at) / RFU TPSAB1 /// TPSB2 (11721975_s_at) / Fold change /veh TPSAB1 /// TPSB2 (11721975_s_at) / RFU GSTM3 (11746129_a_at) / Fold change /veh GSTM3 (11746129_a_at) / RFU IL23R (11737362_x_at) / Fold change /veh IL23R (11737362_x_at) / RFU TMEM51 (11727254_a_at) / Fold change /veh TMEM51 (11727254_a_at) / RFU PIWIL2 (11732686_x_at) / Fold change /veh PIWIL2 (11732686_x_at) / RFU ORM1 (11744905_x_at) / Fold change /veh ORM1 (11744905_x_at) / RFU CCDC152 (11743942_at) / Fold change /veh CCDC152 (11743942_at) / RFU ECM1 (11717891_a_at) / Fold change /veh ECM1 (11717891_a_at) / RFU IL23R (11748794_a_at) / Fold change /veh IL23R (11748794_a_at) / RFU TNFAIP8L3 (11732012_x_at) / Fold change /veh TNFAIP8L3 (11732012_x_at) / RFU MBOAT4 (11741988_at) / Fold change /veh MBOAT4 (11741988_at) / RFU 11764193_at / Fold change /veh 11764193_at / RFU TMEM53 (11763286_at) / Fold change /veh TMEM53 (11763286_at) / RFU MAGEB2 (11727129_at) / Fold change /veh MAGEB2 (11727129_at) / RFU TMEM200A (11744735_a_at) / Fold change /veh TMEM200A (11744735_a_at) / RFU CCDC152 (11751479_a_at) / Fold change /veh CCDC152 (11751479_a_at) / RFU FAM211A (11726209_a_at) / Fold change /veh FAM211A (11726209_a_at) / RFU RGS16 (11746705_a_at) / Fold change /veh RGS16 (11746705_a_at) / RFU VCAN (11755009_s_at) / Fold change /veh VCAN (11755009_s_at) / RFU RHOB (11743442_s_at) / Fold change /veh RHOB (11743442_s_at) / RFU RGS16 (11720943_a_at) / Fold change /veh RGS16 (11720943_a_at) / RFU RGS16 (11720944_at) / Fold change /veh RGS16 (11720944_at) / RFU, VPS4B / Fold change vs veh, VPS4B / RFU, CREB1 / Fold change vs veh, CREB1 / RFU, DNAJC13 / Fold change vs veh, DNAJC13 / RFU, GNAQ / Fold change vs veh, GNAQ / RFU, CDK5R1 / Fold change vs veh, CDK5R1 / RFU, ZRANB3 / Fold change vs veh, ZRANB3 / RFU, CUL4A / Fold change vs veh, CUL4A / RFU, CCNY / Fold change vs veh, CCNY / RFU, UFL1 / Fold change vs veh, UFL1 / RFU, COG3 / Fold change vs veh, COG3 / RFU, DIAPH2 / Fold change vs veh, DIAPH2 / RFU, SKA2 / Fold change vs veh, SKA2 / RFU, AFF3 / Fold change vs veh, AFF3 / RFU, LMF1 / Fold change vs veh, LMF1 / RFU, IPO11 / Fold change vs veh, IPO11 / RFU, DFFB / Fold change vs veh, DFFB / RFU, FOXP1 / Fold change vs veh, FOXP1 / RFU, CARD8 / Fold change vs veh, CARD8 / RFU, STRN3 / Fold change vs veh, STRN3 / RFU, ADK / Fold change vs veh, ADK / RFU, RASSF2 / Fold change vs veh, RASSF2 / RFU, WIPF1 / Fold change vs veh, WIPF1 / RFU, LARP1B / Fold change vs veh, LARP1B / RFU, RASA1 / Fold change vs veh, RASA1 / RFU, RB1 / Fold change vs veh, RB1 / RFU, PPFIA1 / Fold change vs veh, PPFIA1 / RFU, MAT2A / Fold change vs veh, MAT2A / RFU, CCT5 / Fold change vs veh, CCT5 / RFU, WDR92 / Fold change vs veh, WDR92 / RFU, CUX1 / Fold change vs veh, CUX1 / RFU, TTC7A / Fold change vs veh, TTC7A / RFU, TMEM135 / Fold change vs veh, TMEM135 / RFU, DEPTOR / Fold change vs veh, DEPTOR / RFU, CPM / Fold change vs veh, CPM / RFU, DNAJB6 / Fold change vs veh, DNAJB6 / RFU, CACNA2D3 / Fold change vs veh, CACNA2D3 / RFU, DTX4 / Fold change vs veh, DTX4 / RFU, TFCP2 / Fold change vs veh, TFCP2 / RFU, GMCL1 /// GMCL1P1 / Fold change vs veh, GMCL1 /// GMCL1P1 / RFU, AEBP2 / Fold change vs veh, AEBP2 / RFU, SNHG1 /// SNORD22 /// SNORD25 /// SNORD26 /// SNORD27 /// SNORD28 /// SNORD29 /// SNORD31 / Fold change vs veh, SNHG1 /// SNORD22 /// SNORD25 /// SNORD26 /// SNORD27 /// SNORD28 /// SNORD29 /// SNORD31 / Fold change (Aza/veh), C12orf56 (ProbeSet 11735607_a_at) / Fold change (ACY-1035/veh), C12orf56 (ProbeSet 11735607_a_at) / Fold change (Aza/veh), FGFR1OP (ProbeSet 11751329_s_at) / Fold change (ACY-1035/veh), FGFR1OP (ProbeSet 11751329_s_at) / Fold change (Aza/veh), VPS36 (ProbeSet 11739960_a_at) / Fold change (ACY-1035/veh), VPS36 (ProbeSet 11739960_a_at) / RFU SYPL1 (11715823_x_at) / Fold change /veh SYPL1 (11715823_x_at) / RFU IGFBP7 (11715501_s_at) / Fold change /veh IGFBP7 (11715501_s_at) / RFU REEP3 (11722064_at) / Fold change /veh REEP3 (11722064_at) / RFU IGLL1 (11728026_x_at) / Fold change /veh IGLL1 (11728026_x_at): dose or concentration left out as unconfirmed
Settings: MV-4-11 cells, 48 hours

Compound: Nc1ncn([C@@H]2O[C@H](CO)[C@@H](O)[C@H]2O)c(=O)n1 [azacitidine]
- Fold change /veh CMKLR1 (11741424_a_at): 1.02
